Source: patent US8765783B2, “Pharmaceutical composition for treatment of disease due to vascular constriction or vasodilation” (Ono Pharmaceuticals Co., Ltd., priority 2002, dated 2014)
“Also recorded” adds a separate entry of the source.

Assays:
[1] = system: rat removed thoracic aorta; test: Vasoconstrictive action of rat removed thoracic aorta by S1P or phenylephrine; conditions: for constriction of rat thoracic aorta: phenylephrine 10 μM (positive control), S1P 10 μM
Description: The removed thoracic aorta of euthanized SD rat (7-13 weeks old) was immersed in Krebs-Henseleit solution [112 mmol/L sodium chloride, 5.9 mmol/L potassium chloride, 2.0 mmol/L calcium chloride, 1.2 mmol/L magnesium chloride, 1.2 mmol/L monobasic sodium phosphate, 25.0 mmol/L sodium hydrogen carbonate NaHCO3, 11.5 mmol/L glucose, saturated by mixed gas (95% O2+5% CO2)]. They were divided by 3-4 mm with ophthalmic scissors and made as vortical samples. Made samples were hung in magnus tube (volume: 10 mL) filled with Krebs-Henseleit solution [37±1° C., aerated with mixed gas (95% O2+5% CO2)] using a hook. Next, they were loaded with 0.5 g resting tension stabilized for about 60 minutes, then constrictive movement was recorded on a recorder through strain compression amplifier (AP-601G, Nihon Kohden) from Force displacement transducer (FD pickup TB-611T). Sympathetic nerve stimulant, phenylephrine, (10 μM) is used as positive control for constriction action. After that, S1P (10 μM) adding, vasoconstrictive action was measured. As a result, phenylephrine and S1P constricted rat thoracic aorta.

[2] = system: canine removed basilar artery; test: Vasoconstrictor action of canine removed basilar artery by S1P; parameters: species or system canine (beagle); conditions: for constriction of canine basilar arteries: serotonin 1 μM (positive control), S1P 10 μM; for inhibitory effect on vasoconstrictive action of canine basilar artery by S1P: 10 μM test compound added 20 minutes after S1P (10 μM)
Description: (§1) The removed basilar arteries of euthanized male beagle (12 months old) was immersed in Krebs-Henseleit solution [112 mmol/L sodium chloride, 5.9 mmol/L potassium chloride, 2.0 mmol/L calcium chloride, 1.2 mmol/L magnesium chloride, 1.2 mmol/L monobasic sodium phosphate, 25.0 mmol/L sodium hydrogen carbonate NaHCO3, 11.5 mmol/L glucose, saturated by mixed gas (95% O2+5% CO2)]. They were divided by 3-4 mm with ophthalmic scissors and made as ringed samples. Made ringed tissues were hung in magnus tube (volume: 10 mL) filled with Krebs-Henseleit solution [37±1° C., aerated with mixed gas (95% O2+5% CO2)] using a hook. Next, they were loaded with 1 g resting tension stabilized for about 60 minutes, then constrictive movement was recorded on a recorder through strain compression amplifier (AP-601G, Nihon Kohden) from Force displacement transducer (FD pickup TB-611T). Serotonin (1 μM) is used as positive control for constriction action. After that, S1P (10 μM) adding, vasoconstrictive action was measured. As a result, serotonin and S1P constricted basilar arteries.
As a result, test compounds having EDG-5 antagonist activity inhibited vasoconstrictive action by S1P.

[3] = system: canine removed renal artery; test: Vasoconstrictor action of canine renal artery by S1P; parameters: species or system canine (beagle); conditions: for constriction of canine renal arteries: serotonin 1 μM (positive control), S1P 10 μM; for inhibitory effect on vasoconstrictive action of canine renal arteries by S1P: 10 μM test compound added 40 minutes after S1P
Description: as §1, with “renal” for “basilar”

removed rat heart = test: Removed rat heart (Langendorff heart); conditions: Langendorff heart mode; for contractive force of heart muscle: EDG-5 antagonist
Description: Rat (CD(SD)IGS, male, Charles River Japan Inc., 8 weeks old-10 weeks old, 300-450 g) was anesthetized by diethylether, opened the abdominal cavity, injected intravenously with heparin and then, exsanguinated to death. The heart was quickly removed by opening the chest cavity and the removed heart was immersed into cooled Krebs-Henseleit solution. The tissues were trimmed away under the cooling, aortic arches were inserted into the heart functional measuring equipment and fixed with sutures without leaking out. The rat heart function was measured using the heart functional measuring equipment (model IPH-W2, Labo-support). The equipment was used in the Langendorff Heart mode (non-working heart mode) and load was 68-70 mmHg. […] Catheter filled with physiological saline was inserted into the left ventricle, the catheter was connected to the piezotransducer (DX-100, Nihon Kohden) and the left ventricle pressure (LVP) was measured through strain compression amplifier (AP-601G, Nihon Kohden). Heart rate was calculated using LVP data with the heart rate measuring equipment (AT-601G, Nihon Kohden) and dLVP/dt was calculated with differential processor (EQ-641G, Nihon Kohden). Probes of electromagnetic flowmeter (model FF-020T, inside diameter 2 mm, Nihon Kohden) were set on the way to the passage of nutrient solution and the flow rate of nutrient solution (corresponding the blood flow rate of coronary artery) was measured using electromagnetic flowmeter (MFV-3100, Nihon Kohden). Administration of S1P and the compounds was performed by injection of dilution with nutrient solution into the passage of nutrient solution using infusion pump. The injection rate of drug solution was set as the flow rate of nutrient solution before starting of administration. […] Using the above mentioned model, effect of EDG-5 antagonist on heart function was examined. […] EDG-5 antagonist, the compound (1), the compound (2) and the compound (3) increased the flow rate of nutrient solution. In addition, they increased contractive force of heart muscle at the same time. […] It was considered that S1P had no direct chronotropic action and inotropic action on pacemaker and heart muscle and S1P had lowering effect on heart function by contracting the coronary blood vessels and ischemia.

SD rat = test: Increase of rat blood pressure by S1P; format: in vivo; conditions: anesthetized male SD rat
Experimental: Male SD Rat (8 weeks old-10 weeks old) was anesthetized by injection of pentobarbital sodium (50 mg/mL/kg), after midline incision in the cervical region, trachea was exposed by exfoliation of tracheal muscle layer and cannula made of polyethylene was inserted into trachea. Next, catheter made of polyethylene was inserted into the common carotid artery and the common jugular vein. Catheter inserted into the common carotid artery was connected to the piezotransducer and the blood pressure was recorded on the recorder through strain compression amplifier. After the above mentioned operation was finished, in the case of the spinal chord was broken, the spinal chord was broken by insertion of stainless pole into the spinal chord cavity. After the spinal chord was broken, tracheal cannula was immediately connected into the artificial breathing device for small animals and artificial ventilation was performed under the conditions of a ventilatory volume 6 mL/kg and velocity 60 times/min. After then, S1P was administered and we confirmed blood pressure was increased. […] As a result, the compound (3) inhibited the increase of blood pressure by S1P.

human EDG-1 = target: T1, human EDG-1 (Homo sapiens, UniProt P21453); test: Antagonist evaluation for EDG-1, intracellular calcium ion; format: cell-based; conditions: cells overexpressing human EDG-1
T1 construct: expressed in transfected cells
T1 sequence (P21453 whole entry): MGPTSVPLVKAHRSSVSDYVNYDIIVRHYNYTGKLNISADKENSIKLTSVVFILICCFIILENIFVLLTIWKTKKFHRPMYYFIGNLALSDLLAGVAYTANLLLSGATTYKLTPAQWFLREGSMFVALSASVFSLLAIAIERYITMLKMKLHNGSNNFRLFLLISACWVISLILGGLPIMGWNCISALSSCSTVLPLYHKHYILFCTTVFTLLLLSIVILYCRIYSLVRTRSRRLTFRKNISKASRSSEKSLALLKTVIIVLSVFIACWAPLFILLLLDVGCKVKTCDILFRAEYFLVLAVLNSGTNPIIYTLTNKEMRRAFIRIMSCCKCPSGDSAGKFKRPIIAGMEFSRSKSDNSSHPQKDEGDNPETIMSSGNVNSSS

[4] = system: rat removed basilar artery; test: Vasoconstrictor action of rat removed basilar artery; conditions: 3 μM (FIG. 3, FIG. 4)
Experimental: Basilar arteries were removed from male rat (CD(SD)IGS, male, Charles River Japan, Inc., 8 weeks old-10 weeks old, 350-450 g) and quickly immersed in cooled Krebs-Henseleit solution. Removed basilar arteries were divided by about 3 mm width with ophthalmic scissors and made as ringed samples. Samples hung in micro tissue organ bath (MTOB-1: Preimetech Corp.) filled with Krebs-Henseleit solution (37° C.). They were loaded with about 0.2 g resting tension stabilized for about 60 minutes, and then constrictive movement was recorded on a recorder (linearcoda WR3320: Graphtec Corp.) through strain compression amplifier (AP-601G, Nihon Kohden) from micro tissue organ bath.

human EDG-5 = target: T2, human EDG-5 (Homo sapiens, UniProt O95136); test: Antagonistic activity for EDG-5 by monitoring concentration change of intracellular calcium ion; format: cell-based; conditions: CHO cells overexpressing human EDG-5; S1P 100 nM
T2 construct: expressed in transfected cells; host or cells: CHO cells
T2 sequence (O95136 whole entry): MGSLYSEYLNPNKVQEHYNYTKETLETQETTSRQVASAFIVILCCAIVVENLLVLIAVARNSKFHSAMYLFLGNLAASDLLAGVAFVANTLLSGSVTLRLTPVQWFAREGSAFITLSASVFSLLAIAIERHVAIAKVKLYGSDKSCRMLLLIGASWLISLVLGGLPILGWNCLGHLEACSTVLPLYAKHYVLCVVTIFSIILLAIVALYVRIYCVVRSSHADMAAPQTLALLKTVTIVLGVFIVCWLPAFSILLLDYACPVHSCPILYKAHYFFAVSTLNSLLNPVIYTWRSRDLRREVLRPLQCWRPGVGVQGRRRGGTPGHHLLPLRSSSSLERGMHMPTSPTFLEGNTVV
Experimental: Chinese hamster ovary (CHO) cells overexpressed human EDG-5 gene were cultured in Ham's F12 medium (GIBCO BRL) containing 10% FBS (fetal bovine serum), penicillin/streptomycin, and blasticidin (5 μg/ml). Cultured cells were incubated in a Fura2 (5 μM)-AM solution [Ham's F12 medium containing FBS (10%), HEPES buffer (20 mM, pH7.4), and probenecid (2.5 mM)] at 37° C. for 60 minutes. Then they were washed once with a Hank's solution (2.5 mM) containing probenecid and immersed into the same solution. A plate was set on a fluorescent drug screening system, and the concentration of intracellular calcium ion was measured for 30 seconds with no stimulation. A solution of a compound (dimethyl sulfoxide (DMSO) solution of 1 nM to 10 μM at the final concentration) to be tested was added. After lapse of 5 minutes, S1P (final concentration: 100 nM) was added, the concentration of intracellular calcium ion before and after the addition was measured every 3 seconds (excitation wave length: 340 nm and 380 nm; fluorescent wave length: 500 nm). […]

[5] = system: removed rabbit portal vein/mesenteric vein; test: Constriction of the removed rabbit vein by S1P
Experimental: The portal vein/mesenteric vein was removed form male rabbit (NZ White, about 2 kg) under anesthesia and vertical sample of width 2-3 mm and length 3-4 mm was made. Made samples were hung in magnus tube (volume: 5 mL) filled with Krebs-Henseleit solution (37° C.) using a hook. They were loaded with 0.5 g resting tension stabilized for about 60 minutes, then constrictive movement was recorded on a recorder (linear recorder WR3320: Graphtec Corp.) through strain compression amplifier (AP-601G, Nihon Kohden) from Force displacement transducer (FD pickup TB-611T).

human EDG-3 = target: T3, human EDG-3 (Homo sapiens, UniProt Q99500); test: Antagonist evaluation for EDG-3, intracellular calcium ion; format: cell-based; conditions: cells overexpressing human EDG-3
T3 construct: expressed in transfected cells
T3 sequence (Q99500 whole entry): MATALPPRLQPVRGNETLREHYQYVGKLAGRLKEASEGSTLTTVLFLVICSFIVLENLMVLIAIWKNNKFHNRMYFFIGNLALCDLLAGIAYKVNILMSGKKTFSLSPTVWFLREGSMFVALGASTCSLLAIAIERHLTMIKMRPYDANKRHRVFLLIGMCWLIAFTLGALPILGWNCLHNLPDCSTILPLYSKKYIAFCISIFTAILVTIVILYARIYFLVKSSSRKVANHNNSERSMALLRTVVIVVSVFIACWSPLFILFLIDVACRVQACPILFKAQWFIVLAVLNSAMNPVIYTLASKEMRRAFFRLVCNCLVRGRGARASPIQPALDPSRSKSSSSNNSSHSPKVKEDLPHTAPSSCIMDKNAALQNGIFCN

[6] = system: rabbit vasoconstrictive action by S1P; test: Rabbit vasoconstrictive action by S1P
rabbit thoracic aorta = test: Vasoconstrictive action of rabbit thoracic aorta by S1P
canine thoracic aorta = test: Vasoconstrictive action of canine thoracic aorta by S1P

For `CNC[C@H](O)c1cccc(O)c1` [phenylephrine], the “constriction of rat thoracic aorta” value [1] was “constricted”.
With `CCCCCCCCCCCCC/C=C/[C@@H](O)[C@@H](N)COP(=O)(O)O` [Example S1P, (2S,3R,4E)-2-amino-3-hydroxyoctadeca-4-enyl-1-phosphate] the “constriction of canine basilar arteries” value [2] was “constricted”, the “constriction of canine renal arteries” value [3] was “constricted” and the “constriction of rat thoracic aorta” value [1] was “constricted”. The “effect of S1P on contractive force of heart muscle” value (removed rat heart) was “dose-dependently decreased” and the “effect of S1P on rat blood pressure” value (SD rat) was “increased”.
For `O=C(Nc1cccc(C(F)(F)F)c1)N1CCC(O)(c2ccc(Br)cc2)CC1` [compound (2), 4-(4-bromophenyl)-4-hydroxy-N-(3-(trifluoromethyl)phenyl)-1-piperidinecarboxamide], the “inhibitory effect on vasoconstrictive action of canine basilar artery by S1P” value [2] was “inhibited; also recorded: suppression”, the IC50 (human EDG-1) was over 10 µM and the “inhibitory effect on vasoconstrictive action of canine renal arteries by S1P” value [3] was “inhibited; also recorded: suppression”. For the same compound, the “inhibitory effect on vasoconstrictor action of rat removed basilar artery by S1P” value [4] was “inhibitory effect; also recorded: suppression”, the IC50 (human EDG-5) was 0.4 µM and the “inhibitory effect on contraction of vein by S1P” value [5] was “inhibitory effect; also recorded: suppression”. The IC50 (human EDG-3) was over 10 µM, the “flow rate of nutrient solution (corresponding the blood flow rate of coronary artery)” value (removed rat heart) was “increased” and the “contractive force of heart muscle” value (removed rat heart) was “increased”. For the same compound, the “inhibitory effect on rabbit vasoconstrictive action by S1P” value [6] was “showed inhibitory effect”.
In the case of `NCCc1c[nH]c2ccc(O)cc12` [serotonin], the “constriction of canine basilar arteries” value [2] is reported as “constricted” and the “constriction of canine renal arteries” value [3] is reported as “constricted”.
For `Cc1nn(C)c2nc(NNC(=O)Nc3c(Cl)cncc3Cl)cc(C(C)C)c12` [compound (1), N-(1H-1,3-dimethyl-4-isopropylpyrazolo[3,4-b]pyridin-6-yl)amino-N′-(3,5-dichloropyridin-4-yl)urea], the “inhibitory effect on vasoconstrictive action of canine basilar artery by S1P” value [2] was “inhibited; also recorded: suppression”, the IC50 (human EDG-1) was over 10 µM and the “inhibitory effect on vasoconstrictive action of canine renal arteries by S1P” value [3] was “inhibited; also recorded: suppression”. The IC50 (human EDG-5) was 0.5 µM, the IC50 (human EDG-3) was over 10 µM and the “inhibitory effect on vasoconstrictive action of rabbit thoracic aorta by S1P” value (rabbit thoracic aorta) was “showed inhibitory effect”. The “inhibition of vasoconstrictive action of rat thoracic aorta by S1P” value ([1]; 10 μM test compound added an hour after S1P (10 μM)) was “specifically inhibited; also recorded: suppression”, the “inhibition of vasoconstrictive action of rat thoracic aorta by phenylephrine” value ([1]; 10 μM test compound, phenylephrine 10 μM) was “did not inhibit; also recorded: not showing the suppression” and the “flow rate of nutrient solution (corresponding the blood flow rate of coronary artery)” value (removed rat heart) was “increased”. For the same compound, the “contractive force of heart muscle” value (removed rat heart) was “increased”, the “inhibitory effect on rabbit vasoconstrictive action by S1P” value [6] was “showed inhibitory effect” and the “inhibitory effect on vasoconstrictive action of canine thoracic aorta by S1P” value (canine thoracic aorta) was “showed inhibitory effect”.
